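Values below derive from 48-hour exposures of cells grown in 96-well plates, with endpoints linearly interpolated between the two concentrations bracketing the appropriate inhibition level. The concentration for full growth arrest is given as TGI.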
How the values were obtained:
Assay in all cases: growth of human tumour cells (NCI), 48 h
[1] = system: A549 NSCLC
[2] = system: TK-10 renal
[3] = system: LOX IMVI melanoma
[4] = system: 786-0 renal
[5] = system: SNB-19 CNS
[6] = system: IGROV1 ovarian
[7] = system: MOLT-4 leukemia
[8] = system: OVCAR-4 ovarian
[9] = system: HT29 colon
[10] = system: HS 578T breast

| SMILES | TGI [1] | TGI [2] | TGI [3] | TGI [4] | TGI [5] | TGI [6] | TGI [7] | TGI [8] | TGI [9] | TGI [10] |
| --- | --- | --- | --- | --- | --- | --- | --- | --- | --- | --- |
| O=C1OCc2nc3c(c(-c4ccccc4C(F)(F)F)c21)C(=O)OC3 | > 100 µM | > 100 µM | > 100 µM | > 100 µM | > 100 µM | > 100 µM | > 100 µM | – | – | – |
| Cc1cc2c3ccccc3n3c2c2c1OC1(C)CCC(C2C1)C3(C)C (stereo unspecified) | > 25 µM | > 25 µM | > 25 µM | > 25 µM | > 25 µM | > 25 µM | > 25 µM | > 25 µM | > 25 µM | – |
| O=C(CC(C(=O)c1ccsc1)c1cccs1)c1cccs1 (stereo unspecified) | > 100 µM | > 100 µM | > 100 µM | > 100 µM | > 100 µM | > 100 µM | > 100 µM | > 100 µM | > 100 µM | – |
| Cc1cc2nc3c(N)nn(CCCN(C)C)c3nc2cc1C | > 100 µM | > 100 µM | – | > 100 µM | > 100 µM | – | – | > 100 µM | > 100 µM | > 100 µM |
| CCN(CC)C(=O)Cc1[nH][nH]c(=O)c1C(=O)N(CC)CC | > 100 µM | > 100 µM | > 100 µM | > 100 µM | > 100 µM | > 100 µM | > 100 µM | > 100 µM | > 100 µM | – |
| C(/C=C(\Nc1ccccc1)c1ccc2ccccc2c1)=Nc1ccccc1 | 18.4 µM | 4.47 µM | 5.4 µM | 8.9 µM | 8.24 µM | 13.7 µM | 2.62 µM | 14.5 µM | – | 13.7 µM |
| CCOC(=O)CN(CC)C(=O)NC12CC3CC(CC(C3)C1)C2 | > 750 µM | – | 409 µM | – | > 750 µM | > 750 µM | 436 µM | 568 µM | 425 µM | – |
| Cc1c(CCCl)c(Cl)n2c(nc3ccccc32)c1C#N | > 100 µM | 3.84 µM | 0.878 µM | – | 5.88 µM | 3.36 µM | 0.653 µM | 3.29 µM | 4.35 µM | – |
| O=C1C=C2SC3C[C@@]24CC1(O)[N+]1=c2c4c(c(O)c4c2=C(C=N4)CC1)N3 | 4.11 µM | – | 1.55 µM | – | 3.12 µM | 2.98 µM | 0.859 µM | 2.53 µM | 1.01 µM | – |
| O=[N+]([O-])c1ccc(N=P(c2ccccc2)(c2ccccc2)c2ccccc2)n2nnnc12 | > 100 µM | > 100 µM | > 100 µM | > 100 µM | > 100 µM | > 100 µM | > 100 µM | 90.3 µM | > 100 µM | – |

From PubChem BioAssay (NCI)
